US12005125B2, “Nanoparticles for use in photodynamic therapies and methods of making, evaluating and using the same” (Mi2 Holdings LLC, priority 2020, dated 2024)

Assays:
[1] = ADMA fluorescent probe test: rate of total Type 1 and 2 ROS production by an illuminated photosensitizer (k-value); type: physicochemical; settings: for k (rate constant of Type 1 and 2 ROS production, slope of Ln(I/I0) of ADMA vs time): free PS illuminated at the wavelength of its maxima, [PS] E-6 (clinically relevant 1-2 uM); for k′ (k/kstd): relative to methylene blue (MB) as standard; for k″ (1−k′): x coordinate of PS grid, MB = origin
Text: (§1) Discussed below are evaluations methods and system for evaluating a PS for Type ½ Production. The above describes the parameters that would best define an ideal practical PS. […] This can be semi-quantitatively analyzed using fluorescent molecular probes that scavenge Type ½ ROS. Two specific probes ideal for this are 9,10-anthracene bis(methylene) dimalonic acid (ADMA) and singlet oxygen sensor green (SOSG).
(§2) Anthracene and its derivatives are sensitive to both Type 1 and Type 2 ROS, while SOSG is specifically for Type 2 ROS studies.^9 By tracking the fluorescent changes of these probes over time, the Type ½ ROS and rates of production by a set of PSs can be directly compared in a semi-quantitative manner. In the work to follow, AMDA is the anthracene derivative utilized.
ADMA decays according to first order rate law kinetics. As such, the rate of total Type 1 and 2 ROS may be studied by tracking its fluorescence loss over time as a natural log, yielding a linear plot whose slope is the rate constant of Type 1 and 2 ROS production (referred to as the k-value). The greater the rate constant, the more Type 1 and Type 2 ROS being produced, and thus PSs compared under identical conditions (equivalent [PS], [02], flux, temp) can be semi-quantitatively compared.
(§3) Combining the findings of the SOSG and ADMA tests, semi-quantitative comparisons and estimates about the performance of PSs in a given set may be extrapolated, when performed under identical conditions (equivalent [PS], [O2], flux, temp). This will aid in choosing a PS that maximizes PDT efficacy by showing it has a minimum of Type 1 ROS and maximum of Type 2 ROS production, while also producing at a sufficient rate to efficiently ablate tissue.
(§4) The exact method of study is as follows, using a factory default Horiba Duetta:
(§5) 3. Pulse the molecular probe for initial fluorescence
(§6) • a. Simple fluorescence scan • b. […] Ex/Em slits for both=⅔ nm, Integration for 1 second, 5 scans • e. The peak of highest counts is used 2. The PS is illuminated using the wavelength of its maxima for a set amount of time • a. Fixed wavelength fluorescent study mode; choose a time point desired • b. Ex/Em bandwidth=10/1 nm 4. Pulse the molecular probe for fluorescent changes 5. Repeat Steps 2 and 3 until the range time values desired is covered 6. Treat the data • a. Anthracene=Ln(I/I0) vs time; slope=k-value • b. SOSG=I/I0 vs time; slope=S-value
(§7) Using a PS as an assigned origin (standard by which all other PSs are compared to), any PS may be charted by comparing the k and S-values (k/kstd=k′, S/Sstd=S′, k″=1−k′, S″=S′−1) at clinically relevant concentrations (1-2 uM). By plotting the k″ and S″ values as x,y coordinates (respectively), the semi-quantitative comparison of PSs against each other may be directly visualized; the origin PS will have a position of 0,0. The x-axis will then stretch from −∞ to 1, and y-axis from −1 to ∞.

[2] = cited from earlier work
[3] = SOSG (singlet oxygen sensor green) fluorescent probe test: Type 2 ROS production by an illuminated photosensitizer (S-value); type: physicochemical; settings: for S (slope of SOSG I/I0 vs time, Type 2 ROS production): free PS illuminated at the wavelength of its maxima, [PS] E-6 (clinically relevant 1-2 uM); for S′ (S/Sstd): relative to methylene blue (MB) as standard; for S″ (S′−1): y coordinate of PS grid, MB = origin
Text: as §1, §2
SOSG functions in a manner opposite to that of the anthracene probe; instead of a fluorescence loss, SOSG experiences a fluorescence enhancement when interacting with Type 2 ROS; Type 1 ROS has no effect. […] Therefore, the steeper the slope (S-value), the more Type 2 ROS being produced.
as §3, §4, §5, §6, §7

[4] = when covalently conjugated to 8PEGA; cited from earlier work

| Molecule | k (rate constant of Type 1 and 2 ROS production, slope of Ln(I/I0) of ADMA vs time) [1] | k′ (k/kstd) [1] | k″ (1−k′) [1] | solubility in aqueous media ([2]; when covalently conjugated to 8PEGA) | S (slope of SOSG I/I0 vs time, Type 2 ROS production) [3] | S′ (S/Sstd) [3] | S″ (S′−1) [3] | k-values [4] | k-vlaue (E-4) ([1]; [PS] 3.99E−06) | solubility in water [2] | SOSG (E-2) ([3]; [PS] 3.91E−06) |
| --- | --- | --- | --- | --- | --- | --- | --- | --- | --- | --- | --- |
| Chlorin e6 [Ce6] | 0.94 E-4 s^−1 | 0.153 | 0.85 | markedly enhanced | 0.73 E−2 s^−1 | 1.59 | 0.59 | improved | – | – | – |
| Verteporfin | 0.16 E-4 s^−1 | 0.03 | 0.97 | – | 0.06 E−2 s^−1 | 0.13 | −0.87 | – | – | – | – |
| IRDye 700DX HHS Ester [IR700] | 1.83 E-4 s^−1 | 0.299 | 0.70 | – | 2.04 E−2 s^−1 | 4.43 | 3.43 | – | 2.62 E-4 | water soluble, having good solubility | 2.89 E-2 |
| CCNc1cc2[s+]c3cc(NCC)c(C)cc3nc2cc1C.[Cl-] [NMB, New Methylene Blue] | 12.1 E-4 s^−1 | 1.97 | −0.97 | – | 0.96 E−2 s^−1 | 2.09 | 1.09 | – | – | – | – |
| CN(C)c1ccc2nc3ccc(=[N+](C)C)cc-3sc2c1 [MB, Methylene blue] | 6.13 E-4 s^−1 | 1 | 0.00 | – | 0.46 E−2 s^−1 | 1 | 0.00 | – | – | – | – |
